Columns and labels:
[1] = test system: epimastigotes Trypanosoma cruzi (Y strain); experiment: Trypanocidal capacity assay (Alamar Blue); type: cell-based; conditions: epimastigote form; for IC50: 96 h
Procedure: (§1) Bioassay-guided fractionation of the crude extract yielded six dolabellanes 1–6. Their in vitro antiprotozoal activity was evaluated applying serial dilutions of the compounds, and IC50 were calculated using the Alamar Blue reagent reaction.
(§2) The activity of the crude extract, different subfractions and isolated compounds were evaluated against promastigotes of Leishmania amazonensis (MHOM/BR/77/LTB0016) and epimastigotes Trypanosoma cruzi (Y strain). Cytotoxicity assay of the active compounds was tested against the murine macrophage J774.A1 cell line (ATCC # TIB-67).
The activity was evaluated in vitro against epimastigote stage of Trypanosoma cruzi. Different concentrations of fractions and compounds were incubated in 96 wells plate for 96 h with a density of 10^5 parasite/well. 10% of Alamar blue was added to each well and the IC50 was calculated. All assays have been realized in triplicate.

[2] = test system: promastigotes of Leishmania amazonensis (MHOM/BR/77/LTB0016); experiment: Leishmanicidal capacity assay (Alamar Blue); type: cell-based; conditions: promastigote form; for IC50: Leishmania amazonensis
Procedure: as §1, §2
Logarithmic phase cultures of Leishmania amazonensis were used for experimental purposes, and the in vitro susceptibility assay was performed in sterilized 96-well plates. 10^6/well parasites were added to wells containing different concentration of the drug to be tested. Percentages of inhibition, 50% inhibitory concentrations (IC50) for active compounds were calculated by linear regression analysis using the Alamar Blue method.

[3] = Cytotoxicity assay (Alamar Blue); type: cell-based; conditions: mouse, J774.A1 macrophage cell line (ATCC TIB-67), murine macrophage J774.A1
Procedure: as §2, with “TIB-67).[…]” for “TIB-67).”

[4] = test system: promastigote form of L. amazonensis; design: method as in PMID 22970332; conditions: promastigotes; cited from earlier work

SMILES	IC50 ([1]; Trypanosoma cruzi) [µM]	IC50 [2] [µM]	CC50 at 24 h [3] [µM]	IC50 [4] [µM]	antikinetoplastid activity against Trypanosoma cruzi (in words) [1]	antikinetoplastid activity against Leishmania amazonensis (in words) [2]	IC50 [1] [µM]
C=C(C)[C@H]1CC(=O)[C@]2(C)C/C=C(\C)CC/C=C(\C)CC[C@@H]12 [compound 5, (1R,3E,7E,11S,12S)-14-Oxo-3,7,18-dolabellatriene]	> 100	> 100	–	–	–	–	–
C=C(C)C1CC(=O)C2(C)CC=C(C)CCC=C(C)CCC12 [compound 6, (1R,3Z,7E,11S,12S)-14-Oxo-3,7,18-dolabellatriene]	> 100	> 100	–	–	–	–	–
CCCCCCCCCCCCCCCCOP(=O)([O-])OCC[N+](C)(C)C [Miltefosine, reference compound]	–	–	72.2 ± 3.06	–	–	–	–
C[C@H]1/C=C/[C@@]2(C)CC[C@@H](C(C)(C)O)[C@@H]2[C@@H](O)C[C@](C)(O)/C=C/C1 [dolabelladienetriol (9), dolabelladienetriol]	–	–	–	44	–	–	–
C=C(C)[C@H]1CC(=O)[C@]2(C)C[C@@H]3O[C@@]3(C)CC/C=C(\C)CC[C@@H]12 [compound 4, (1R,3S,4S,7E,11S,12S)-3,4-Epoxy-14-oxo-7,18-dolabelladiene]	> 100	> 100	–	–	inactive	inactive	–
C=C(C)C1CCC2(C)CC=C(C)CCC=C(C=O)C(O)CC12 (stereo not shown) [Spiralyde A (1), Spiralyde A]	5.62 ± 2.48	15.5 ± 0.26	23.4 ± 5.62	–	–	–	–
C=C(C)[C@H]1C[C@H](O)[C@]2(C)C[C@@H]3O[C@@]3(C)CC/C=C(\C)CC[C@@H]12 [compound 3, (1R,3S,4S,7E,11S,12S,14S)-3,4-Epoxy-14-hydroxy-7,18-dolabelladiene]	> 100	> 100	–	–	inactive	inactive	–
O=C(Cn1ccnc1[N+](=O)[O-])NCc1ccccc1 [Benznidazole, reference compound]	6.95	–	400 ± 4	–	–	–	6.94 ± 1.94
C=C(C)[C@H]1CC[C@]2(C)C[C@@H]3O[C@@]3(C)CC/C=C(\C)CC[C@@H]12 [compound 2, (1R,3S,4S,7E,11S,12S)-3,4-Epoxy-7,18-dolabelladiene]	35.3 ± 4.09	36.8 ± 5.2	69.98 ± 0.14	–	moderate activity	moderate activity	–

Reference: publication PMC6471066, “Spiralyde A, an Antikinetoplastid Dolabellane from the Brown Alga Dictyota spiralis” (Marine Drugs, 2019)
